Laboratory results published in ChEMBL document CHEMBL3399988, “Ritonavir-boosted indinavir but not lopinavir inhibits erythrocytic stage Plasmodium knowlesi malaria in rhesus macaques” (Bioorg Med Chem Lett, 2015).
Active and inactive are the calls of the source. No cut-off for these calls is given here.

Legend:
Plasmodium knowlesi [1] = experiment: Antimalarial activity against Plasmodium knowlesi infected Chinese rhesus macaques assessed as parasitemia level in blood smears at 40 mg/kg, intragastric treated 5 days before infection measured between day 0 to 7 by Giemsa-staining in presence of ritonavir 5 mg/kg, intragastric twice daily; type: functional, organism-based
Plasmodium knowlesi [2] = experiment: Antimalarial activity against Plasmodium knowlesi infected Chinese rhesus macaques assessed as parasitemia level in blood smears at 40 mg/kg, intragastric treated 5 days before infection measured between day 0 to 7 by Giemsa-staining in presence of ritonavir 10 mg/kg, intragastric once daily; type: functional, organism-based

Structure (SMILES) | inhibition (Plasmodium knowlesi [1]) | inhibition (Plasmodium knowlesi [2])
CC(C)(C)NC(=O)[C@@H]1CN(Cc2cccnc2)CCN1C[C@@H](O)C[C@@H](Cc1ccccc1)C(=O)N[C@H]1c2ccccc2C[C@H]1O | Active | 
Cc1cccc(C)c1OCC(=O)N[C@@H](Cc1ccccc1)[C@@H](O)C[C@H](Cc1ccccc1)NC(=O)[C@H](C(C)C)N1CCCNC1=O |  | inactive
